Data taken from patent publication US4661491A, “Alfuzosine compositions and use” (Synthelabo, priority 1985, dated 1987).

Columns and labels:
α-adrenergic receptors = molecular target: T1, α-adrenergic receptors (Oryctolagus cuniculus, UniProt O02824); test: Phenylephrine-induced contraction of rabbit trigone muscle and urethra preparations; format: biochemical
T1 construct: The bladder and urethra are rapidly removed and placed in lukewarm Krebs solution; from tissue; host or cells: rabbit bladder trigone muscle and urethra ring, isolated organ
T1 sequence (O02824 1-466): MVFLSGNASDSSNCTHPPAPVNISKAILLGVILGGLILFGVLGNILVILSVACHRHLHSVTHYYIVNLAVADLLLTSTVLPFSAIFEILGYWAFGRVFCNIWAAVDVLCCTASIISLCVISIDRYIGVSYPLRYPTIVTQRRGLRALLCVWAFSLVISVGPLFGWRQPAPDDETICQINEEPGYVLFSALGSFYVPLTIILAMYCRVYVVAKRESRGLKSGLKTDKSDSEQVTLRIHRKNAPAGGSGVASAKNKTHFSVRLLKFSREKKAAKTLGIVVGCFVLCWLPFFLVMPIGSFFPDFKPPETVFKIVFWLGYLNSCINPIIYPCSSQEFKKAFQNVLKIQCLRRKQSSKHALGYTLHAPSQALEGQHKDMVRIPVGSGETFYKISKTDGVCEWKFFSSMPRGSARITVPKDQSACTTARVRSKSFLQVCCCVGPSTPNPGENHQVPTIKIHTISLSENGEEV
Method: Male rabbits (CEGAN) weighing 3 to 4 kg are sacrificed by exsanguination and cervical dislocation.
The bladder and urethra are rapidly removed and placed in lukewarm Krebs solution containing bicarbonate.
The composition of this Krebs medium is as follows, in mM: NaCl 114; KCl 4.7; CaCl2 2.5; KH2 PO4 1.2; MgSO4 1.2; NaHCO3 25.0; glucose 11.7; ascorbic acid 1.1. Propranolol (1.0 μM) is added into the Krebs medium to block the β-adrenergic receptors.
The bladder is opened transversely and the "trigone" region of the muscle, located on the dorsal surface of the bladder and between the two ureters, is dissected out.
A 5 mm ring of urethra, from the region situated between the base of the bladder and the prostate, is also prepared.
The portions of trigone muscle and urethra are washed under a tension of 1 g in Krebs medium.
The contraction-response curve to cumulated concentrations of phenylephrine is determined.
Additions of the agonist are performed every 5 min. The tissues are washed until the original tension is reestablished, and are then incubated for 30 min with alfuzosine. A second response curve to phenylephrine is determined in the presence of alfuzosine.
The response curves to concentrations of phenylephrine in the presence or absence of alfuzosine are expressed as a percentage of the maximum response obtained relative to the control curve.
The power of alfuzosine is calculated in the form of pA2 by Schild's method, where pA2 =negative logarithm of the molar concentration of alfuzosine which causes a rightward shift of the response curve to the agonist.

[1] = Clinical study, sphincterometric measurements in patients with dysuria of neurological origin with urethral hypertonia; format: in vivo, human; conditions: 5 mg i.v. over 20 min; p<0.001
Method: By means of clinical studies, it has also been possible to show the efficacy of alfuzosine in patients suffering from dysuria of neurological origin with urethral hypertonia.
5 mg of alfuzosine are injected intravenously continuously for a period of 20 min. Sphincterometric measurements were made using an electronic micro-sensor, before and after the injection of the drug, at the bladder neck and at the striated sphincter of the posterior urethra.

[2] = Clinical study in paraplegics, micturition test; format: in vivo, human
Method: A clinical study was also performed in paraplegics.
The paraplegic, or spinal man, gives rise to an experimental model of the peripheral receptors, since he embodies a disconnection from the influence of the higher, diencephalic and cortical nerve centres.
Given the localization of the alpha-adrenergic receptors in the posterior urethra and the vesico-urethral segment or neck, alpha-adrenergic hypertonia is the source of dysuria and disturbances of micturition. The opening of the neck and the fall in the pressure gradient in the posterior urethra are the two conditions required for the production of effective micturition.
Alfuzosine was administered intravenously, and then orally if the first test is positive. 5 mg of alfuzosine are injected intravenously in the course of 20 min.
The test is considered to be positive if an initiation of micturition, that is to say, necessarily, opening of the neck, takes place.
For patients for whom the test is positive, the administration of alfuzosine was then performed orally at the rate of 9 mg/24 h/28 d.

## COc1cc2nc(N(C)CCCNC(=O)C3CCCO3)nc(N)c2cc1OC (stereo not shown) [Alfuzosine]
α-adrenergic receptors; alfuzosine 3.0 μM, 30 min incubation, trigone muscle and urethra
  shift of the response curve to phenylephrine: significant rightward parallel shift
α-adrenergic receptors; antagonism of phenylephrine contraction, read-out: pA2 (Schild analysis) (converted)
  Kb: 89.1 nM
α-adrenergic receptors; trigone muscle and urethra, 30 min
  reduction in the maximum contractile effects of phenylephrine: 20 to 30%
[1]
  pressure decrease at the bladder neck: 44%
  pressure decrease at the striated sphincter: 39%
[2]; paraplegics positive in i.v. test, per os 9 mg/24 h/28 d
  initiation of micturition under oral treatment: enabled micturition to be rendered easier to initiate
[2]; paraplegics, 5 mg i.v. in 20 min
  intra-urethral pressures after injection: decrease significantly
